The values below come from patent publication US20240148833A1, “COMPOSITION COMPRISING GLP-1 RECEPTOR AGONIST AND ACAT INHIBITOR” (EFIL BioScience Inc., priority 2022, published 2024).

The nature of experiment [1]: Cohort 1: daily sc administration in morbidly obese DIO mice, body weight, food intake, organ weight. Format: in vivo, male C57BL/6 mice. The conditions noted are these: for mean body weight change, % of starting body weight: initial 4-week period (day 28), avasimibe 10 mg/kg BW, semaglutide 0.04 mg/kg BW, HF diet. How it is done:
(§1) Cohort 1: The first set of animal study was conducted at Nonclinical Research Institute, ChemOn Inc., and experimental procedures were approved by Institutional Animal Care and Use Committee (serial number 2021-09-007). Eight-week-old male C57BL/6 mice were purchased (Orient Bio Inc., Republic of Korea). After 2-week acclimation, the mice were fed with high-fat (HF) diet (cat #: D12492, Research Diets Inc.) for 12 weeks to develop DIO. These mice were then randomly assigned to control, avasimibe, semaglutide, and combination groups. Avasimibe solution was prepared for making the final concentration of avasimibe at 10 mg/kg BW, as described in Y. Zhu, S. Q. Kim, Y. Zhang, Q. Liu, K. H. Kim, Pharmacological inhibition of acyl-coenzyme A:cholesterol acyltransferase alleviates obesity and insulin resistance in diet-induced obese mice by regulating food intake, Metabolism 123 (2021) 154861, which is incorporated herein by reference. Semaglutide stock solution prepared in DMSO (1 mg/ml) was diluted with PBS for the final concentration of 0.04 mg/kg BW. The drug solution or the vehicle solution at a volume of 10 μl/g BW was injected to the mice sc daily for the indicated days.
Cohort 1 mice were used to investigate whether combined treatment with semaglutide and a lower dose avasimibe compared to single semaglutide injection in morbidly obese mice (FIG. 1A). On the first day of the experiment, the average body weight of the mice was recorded as 48.84±2.26 grams (FIG. 1B). […] Mice in the vehicle control and avasimibe groups were sacrificed after additional 16 days of treatment (FIG. 1A). Throughout the initial 4-week period, the mean body weight of the vehicle-treated animals increased by 1.2% compared to their starting body weight. In contrast, the mean body weight changes for mice treated with avasimibe, semaglutide, or the combination of both drugs were −6.29%, −21.66%, and −30.47% of their starting body weight, respectively (FIG. 1C). […] Y. Zhu, S. Q. Kim, Y. Zhang, Q. Liu, K. H. Kim, Pharmacological inhibition of acyl-coenzyme A:cholesterol acyltransferase alleviates obesity and insulin resistance in diet-induced obese mice by regulating food intake, Metabolism 123 (2021) 154861, which is incorporated herein by reference. Consequently, we increased the avasimibe dose to 20 mg/kg BW in the subsequent study involving the second cohort of mice. […] However, as the treatment regimen continued, food intake gradually returned to baseline levels, and the effect of semaglutide diminished around day 26. […] To investigate potential toxic effects of the combination treatment on the liver, we measured plasma ALT and AST levels.

The format of experiment [2] is in vivo, male C57BL/6 mice. Also noted: Plasma Cholesterol / Plasma CE (cholesteryl ester): unit not given here. The conditions noted are these: mean±SEM, n=10. How it is done: as §1
Body composition (e.g., fat mass, lean mass, free water, and total water) changes were assessed right before sacrificing the second cohort of mice using EchoMRI (Echo Medical Systems). Blood samples were obtained after fasting for 3h, frozen and stored until analysis. Aspartate transaminase (AST), alanine aminotransferase (ALT), glucose, triglycerides (TG), high-density lipoprotein (HDL-C) and low-density lipoprotein cholesterol (LDL-C) were also measured (AU680 Chemistry Analyzer, Beckman Coulter). The levels of serum leptin (cat #: ab100718, Abcam) and insulin (cat #: ab277390, Abcam) were determined by enzyme-linked immunosorbent assay kit and cholesterol/CE (cat #: ab65359, Abcam) was determined by an enzymatic assay according to the manufacturers' instructions.

Experiment [3] in a line: Cohort 2: sc administration every three days for 23 days in moderately obese DIO mice, body weight and food intake. Format: in vivo, male C57BL/6 mice. The conditions noted are these: for mean body weight loss, % of the starting body weight: sc every three days for 23 days, avasimibe 20 mg/kg BW, HF diet. How it is done: Cohort 2: The second set of animal experiments were conducted according to a protocol approved by the Purdue Animal Care and Use Committee (protocol number: 11129000347). Male C57BL/6 DIO mice were purchased from Jackson Laboratory. After 8-week HF diet feeding, mice were randomly assigned to the same groups as cohort 1: control, avasimibe, semaglutide, and combination groups. Avasimibe (20 mg/kg BW) and semaglutide (0.04 mg/kg BW) were prepared in the method used with regard to Cohort 1, and the drugs were sc injected every three days for 23 days. Mice were kept on a 12/12 h light/dark cycle in a humidity and temperature control facility with ad libitum access to food and water. To validate the impact of the combined treatment of semaglutide and avasimibe in DIO mice and to simulate a weekly semaglutide regimen for humans, we utilized Cohort 2 mice (FIG. 2A). On day 1, the average body weight of the mice was recorded as 37.37±3.58 grams. Throughout the treatment period, the mice in the vehicle group continued to gain weight, reaching an average body weight of 41.58±4.74 grams, representing a […] increase from the starting body weight (FIG. 2B). […] Specifically, the mean body weight losses were 0.82%, 8.56%, and 14.89% of the starting body weight for the mice treated with avasimibe, semaglutide, and the combination of both drugs, respectively (FIG. 2C).

Experiment [4] can be described thus: Cohort 2: histological measurement of adipocyte size in inguinal fat pad (H&E). In kind it is in vivo, male C57BL/6 mice. The conditions noted are these: sc every three days for 23 days. How it is done:
(§2) Cohort 2: The second set of animal experiments were conducted according to a protocol approved by the Purdue Animal Care and Use Committee (protocol number: 11129000347). Male C57BL/6 DIO mice were purchased from Jackson Laboratory. After 8-week HF diet feeding, mice were randomly assigned to the same groups as cohort 1: control, avasimibe, semaglutide, and combination groups. Avasimibe (20 mg/kg BW) and semaglutide (0.04 mg/kg BW) were prepared in the method used with regard to Cohort 1, and the drugs were sc injected every three days for 23 days. Mice were kept on a 12/12 h light/dark cycle in a humidity and temperature control facility with ad libitum access to food and water.
During animal sacrifice, adipose tissues were rinsed with saline solution, fixed in 10% neutral formalin buffered solution, and embedded in paraffin. The tissues were then cut into […] sections and stained with hematoxylin and eosin (H&E) to measure cell size (˜100 cells/mouse) by ImageJ software (NIH).

Experiment [5] is described as follows: Cohort 2: oral glucose tolerance test (OGTT). In kind it is in vivo, male C57BL/6 mice. The conditions noted are these: sc every three days, avasimibe 20 mg/kg BW; D-glucose 2 g/kg BW oral after 6 h fast. How it is done: as §2, with “water. Mice were fasted for 6 hrs (07:00-13:00) prior to oral administration of D-glucose (2 g/kg BW). Tail blood samples were obtained before (at 0) and at 15, 30, 60, 90 and 120 minutes after glucose challenge for the measurement of blood glucose concentration using a CONTOUR® NEXT glucometer (Ascensia Diabetes Care, Parsippany, NJ, USA).” for “water.”

The conditions of experiment [6]: daily intraperitoneal (ip) 20 mg/kg BW avasimibe for 14 day; cited from earlier work.
Where [7] appears, read: Day 29, daily sc semaglutide 0.04 mg/kg BW with or without avasimibe 10 mg/kg BW.
Where [8] appears, read: Day 43, daily sc avasimibe 10 mg/kg BW.

Like-named read-outs stand apart in the source and are kept apart here.

With semaglutide, the “day around which the effect on food intake diminished” value in experiment [1] (daily sc semaglutide 0.04 mg/kg BW) was ~26 days. Moreover, the “mean body weight change, % of starting body weight” value in experiment [1] (daily sc) was −21.66%. The “food intake compared to vehicle or avasimibe alone” value in experiment [1] (daily sc, early treatment period) is “rapid suppression of food intake”. Further, in experiment [2] (setting [7]), the “Plasma CE (cholesteryl ester)” value amounted to 7.071 ± 0.240, the “Plasma Cholesterol” value worked out at 8.055 ± 0.292, the “Plasma Glucose” value is reported as 121.73 ± 6.26 mg/dL and the “Plasma HDL” value turned out to be 37.02 ± 1.14 mg/dL. In addition, in experiment [2] (setting [7]), the “Plasma Insulin” value was found to be 0.41 ± 0.07 mIU/mL, the “Plasma LDL” value was found to be 5.05 ± 0.60 mg/dL, the “Plasma Leptin” value was determined as 2.99 ± 0.65 pg/mL and the “Plasma TG (triglyceride)” value was found to be 21.60 ± 1.38 mg/dL. For the same compound, the “mean body weight loss, % of the starting body weight” value in experiment [3] (semaglutide 0.04 mg/kg BW) stood at 8.56%. Further, in experiment [3] (sc every three days, semaglutide 0.04 mg/kg BW), the “time for food intake to recover after each administration” value is ≤ 48 h. For the same compound, the “food intake by day 22, versus vehicle group” value in experiment [3] (sc every three days, by the seventh administration) was “surpass that of the vehicle group”. Moreover, the “percentage of large adipocytes (40,001-100,000 μm^2) compared to vehicle group” value in experiment [4] was “lower percentage”.
With `CC(C)c1cc(C(C)C)c(CC(=O)NS(=O)(=O)Oc2c(C(C)C)cccc2C(C)C)c(C(C)C)c1` [Avasimibe, avasimibe], the “mean body weight change, % of starting body weight” value in experiment [1] (daily sc) was −6.29%. In experiment [2] (setting [8]), the “Plasma Glucose” value is 139.7 ± 6.32 mg/dL, the “Plasma HDL” value stood at 35.13 ± 1.14 mg/dL, the “Plasma Insulin” value is 1.43 ± 0.29 mIU/mL and the “Plasma LDL” value is 7.14 ± 0.46 mg/dL. For the same compound, in experiment [2] (setting [8]), the “Plasma Leptin” value stood at 6.72 ± 1.40 pg/mL and the “Plasma TG (triglyceride)” value was determined as 33.80 ± 2.09 mg/dL. Also, in experiment [3] (semaglutide 0.04 mg/kg BW), the “mean body weight loss, % of the starting body weight” value is reported as 0.82%. Also, the “glucose tolerance in OGTT” value in experiment [5] is on record as “did not enhance glucose tolerance”. In addition, in experiment [4], the “percentage of large adipocytes (20,001-100,000 μm^2) compared to vehicle group” value was “lower percentage” and the “percentage of small adipocytes (5,001-10,000 μm^2) compared to vehicle group” value is “significantly higher percentage”. In experiment [6], the “reduction in body weight” value is on record as 24%.
